Measured values taken from ChEMBL document CHEMBL3044546, “Synthesis of inhibitors of imidazole glycerol phosphate dehydratase” (Bioorg Med Chem Lett, 1996).
pIC50, pKi: −log10 of the molar value.

Assays:
[1] = Inhibition of Saccharomyces cerevisiae imidazole glycerol-phosphate dehydratase expressed in Escherichia coli
Saccharomyces cerevisiae = test: Inhibition of Saccharomyces cerevisiae imidazole glycerol-phosphate dehydratase expressed in Escherichia coli at 1 uM

SMILES	pIC50 [1]	inhibition (Saccharomyces cerevisiae) [%]	pKi [1]
O=C(O)C(CCCC(O)c1nc[nH]n1)C(=O)O (centres undefined)	< 3.30	–	–
O=P(O)(O)COCC(O)Cn1cncn1 (centres undefined)	> 6.00	80	–
O=C(O)C(OCC(O)Cn1cncn1)C(=O)O (centres undefined)	4.00	–	–
O=C(O)C(CCC(O)c1nc[nH]n1)C(=O)O (centres undefined)	5.22	–	–
O=P(O)(O)CC(O)Cn1cncn1 (centres undefined)	–	–	9.22
O=C(O)C(CC(O)c1nc[nH]n1)C(=O)O (centres undefined)	< 3.30	–	–
O=P(O)(O)CCC(O)c1nc[nH]n1 (centres undefined)	6.89	–	7.40
O=C(O)C(OCCC(O)Cn1cncn1)C(=O)O (centres undefined)	4.52	–	–
O=P(O)(O)CCCCC(O)c1nc[nH]n1 (centres undefined)	4.10	–	–
CNC(CC(O)CCP(=O)(O)O)c1nc[nH]n1 (centres undefined)	5.00	–	–
O=P(O)(O)COCCNc1nc[nH]n1	5.30	–	–
O=P(O)(O)CSCC(O)Cn1cncn1 (centres undefined)	5.15	–	–
